Measured values as given in PubChem BioAssay AID328 (DTP/NCI, 2004).
“And” between values parts separate entries of the source, which are not always exact repeats. Equal values may be shown once. Toxic doses and inconclusive results are not listed.

Test system: BDF1 mice, P388 leukemia ip, median survival T/C
Test: NCI In Vivo Anticancer Drug Screen. Data for tumor model P388 Leukemia (intraperitoneal) in B6D2F1 (BDF1) mice
Settings: endpoint: median survival time, higher = longer survival
Procedure, shortened: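 Transplantable tumour in mice; compound vs vehicle dosing; survival scored; ratio of treated to control reported.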

[1] = dose: 25.0 mg/kg/injection, schedule: Q01DX009 (ip), vehicle: saline
[2] = dose: 50.0 mg/kg/injection, schedule: Q01DX009 (ip), vehicle: saline
[3] = dose: 100.0 mg/kg/injection, schedule: Q01DX009 (ip), vehicle: saline
[4] = dose: 25.0 mg/kg/injection, schedule: Q01DX009 (ip), vehicle: saline with Tween-80
[5] = dose: 50.0 mg/kg/injection, schedule: Q01DX009 (ip), vehicle: saline with Tween-80
[6] = dose: 100.0 mg/kg/injection, schedule: Q01DX009 (ip), vehicle: saline with Tween-80
[7] = dose: 200.0 mg/kg/injection, schedule: Q01DX009 (ip), vehicle: saline with Tween-80

In the case of NC(N)=Nc1ccc(S(=O)(=O)O)cc1, the T/C (dose: 12.5 mg/kg/injection, schedule: Q01DX009 (ip), vehicle: saline) is reported as 108 % of control, the T/C [1] is reported as 108 % of control and the T/C [2] is reported as 91 % of control. For the same compound, the T/C [3] was 106 % of control.

C1CC2CCC1CNC2 was tested, and the T/C [4] was 95 % of control, the T/C [5] was 100 % of control and the T/C [6] was 100 % of control.

In the case of CCc1ccc(NC(=O)c2cccc(Cl)c2)cc1, the T/C (dose: 100.0 mg/kg/injection, schedule: Q04DX003 (ip), vehicle: saline with Tween-80) is reported as 109 % of control, the T/C (dose: 200.0 mg/kg/injection, schedule: Q04DX003 (ip), vehicle: saline with Tween-80) is reported as 109 % of control and the T/C (dose: 400.0 mg/kg/injection, schedule: Q04DX003 (ip), vehicle: saline with Tween-80) is reported as 109 % of control.

For CCOC(=O)CN1CCC2CC1c1c([nH]c3ccccc13)C21OCCO1 (configuration not stated), the T/C (dose: 0.06 mg/kg/injection, schedule: Q01DX009 (ip), vehicle: saline) was 105 % of control, the T/C (dose: 0.12 mg/kg/injection, schedule: Q01DX009 (ip), vehicle: saline) was 95 % of control and the T/C (dose: 0.25 mg/kg/injection, schedule: Q01DX009 (ip), vehicle: saline) was 100 % of control. For the same compound, the T/C (dose: 0.5 mg/kg/injection, schedule: Q01DX009 (ip), vehicle: saline) was 105 % of control, the T/C (dose: 1.0 mg/kg/injection, schedule: Q01DX009 (ip), vehicle: saline) was 105 % of control and the T/C (dose: 2.0 mg/kg/injection, schedule: Q01DX009 (ip), vehicle: saline) was 100 % of control. The T/C (dose: 8.0 mg/kg/injection, schedule: Q01DX009 (ip), vehicle: saline) was 98 % of control, the T/C (dose: 16.0 mg/kg/injection, schedule: Q01DX009 (ip), vehicle: saline) was 102 % of control and the T/C (dose: 32.0 mg/kg/injection, schedule: Q01DX009 (ip), vehicle: saline) was 104 % of control.

In the case of Cc1ccc2c(c1)N=C(Nc1ccccc1)N=S2(C)=O (configuration not stated), the T/C [4] is reported as 123 % of control and the T/C [6] is reported as 160 % of control.

With CCCCCCCCCCCCCSCCCCCCCCCCCCSCCCCCCCCCCCC the T/C (dose: 100.0 mg/kg/injection, schedule: Q01DX001 (ip), vehicle: saline sonified) was 86 % of control, the T/C (dose: 200.0 mg/kg/injection, schedule: Q01DX001 (ip), vehicle: saline sonified) was 86 % of control and the T/C (dose: 400.0 mg/kg/injection, schedule: Q01DX001 (ip), vehicle: saline sonified) was 90 % of control.

For COC12C(COC(N)=O)C3=C(C(=O)C(C)=C(N4CC4)C3=O)N1CC1NC12 (configuration not stated), the T/C (dose: 0.21 mg/kg/injection, schedule: Q04DX003 (ip), vehicle: saline with Tween-80) was 235 % of control, the T/C (dose: 0.33 mg/kg/injection, schedule: Q04DX003 (ip), vehicle: saline with Tween-80) was 200 % of control and the T/C (dose: 0.5 mg/kg/injection, schedule: Q04DX003 (ip), vehicle: saline with Tween-80) was 190 % of control. The T/C (dose: 0.75 mg/kg/injection, schedule: Q04DX003 (ip), vehicle: saline with Tween-80) was 255 % of control.

For C=C(C)C12OC3(c4ccccc4)OC1C1C4OC4(CO)C(O)C4(O)C(=O)C(C)=CC4C1(O3)C(C)C2OC(=O)/C=C/c1ccccc1 (configuration not stated), the T/C (dose: 6.3 micrograms/kg/injection, schedule: Q## X009 (ip), vehicle: saline + alcohol) was 114 % of control, the T/C (dose: 12.5 micrograms/kg/injection, schedule: Q## X009 (ip), vehicle: saline + alcohol) was 110 % of control and the T/C (dose: 25.0 micrograms/kg/injection, schedule: Q## X009 (ip), vehicle: saline + alcohol) was 118 % of control. For the same compound, the T/C (dose: 50.0 micrograms/kg/injection, schedule: Q## X009 (ip), vehicle: saline + alcohol) was 109 % of control, the T/C (dose: 100.0 micrograms/kg/injection, schedule: Q## X009 (ip), vehicle: saline + alcohol) was 159 % of control and the T/C (dose: 200.0 micrograms/kg/injection, schedule: Q## X009 (ip), vehicle: saline + alcohol) was 173 % of control.

For S=P(NCCNP(=S)(N1CC1)N1CC1)(N1CC1)N1CC1, the T/C (dose: 33.0 mg/kg/injection, schedule: Q04DX003 (ip), vehicle: saline with Tween-80) was 121 % of control, the T/C (dose: 50.0 mg/kg/injection, schedule: Q04DX003 (ip), vehicle: saline with Tween-80) was 256 % of control and the T/C (dose: 75.0 mg/kg/injection, schedule: Q04DX003 (ip), vehicle: saline with Tween-80) was 121 % of control.

For CCC(CC)N(C)C(C)(C)CO, the T/C [4] was 100 % of control, the T/C [5] was 91 % of control and the T/C (dose: 50.0 mg/kg/injection, schedule: Q04DX003 (ip), vehicle: saline sonified) was 104 % of control. The T/C [6] was 108 % of control, the T/C (dose: 100.0 mg/kg/injection, schedule: Q04DX003 (ip), vehicle: saline sonified) was 104 % of control and the T/C (dose: 200.0 mg/kg/injection, schedule: Q04DX003 (ip), vehicle: saline sonified) was 113 % of control.

With O=Nc1c(S(=O)(=O)O)cc2cc(S(=O)(=O)O)cc(O)c2c1O.[Cu+2] the T/C (dose: 1.25 mg/kg/injection, schedule: Q04DX003 (ip), vehicle: saline) was 97 % of control, the T/C (dose: 2.5 mg/kg/injection, schedule: Q04DX003 (ip), vehicle: saline) was 91 % of control and the T/C (dose: 5.0 mg/kg/injection, schedule: Q04DX003 (ip), vehicle: saline) was 115 % of control.

In the case of O=C(Nc1cccc(Br)c1)N1c2ccccc2SC12CCCC2, the T/C [5] is reported as 89 % of control, the T/C [6] is reported as 97 % of control and the T/C [7] is reported as 106 % of control.

With CCOC(=O)C(I)CC (configuration not stated) the T/C (dose: 6.25 mg/kg/injection, schedule: Q04DX003 (ip), vehicle: water) was 100 % of control, the T/C (dose: 12.5 mg/kg/injection, schedule: Q01DX009 (ip), vehicle: water) was 105 % of control and the T/C (dose: 12.5 mg/kg/injection, schedule: Q04DX003 (ip), vehicle: water) was 100 % of control. For the same compound, the T/C (dose: 25.0 mg/kg/injection, schedule: Q01DX009 (ip), vehicle: water) was 98 % of control, the T/C (dose: 25.0 mg/kg/injection, schedule: Q04DX003 (ip), vehicle: water) was 105 % of control and the T/C (dose: 50.0 mg/kg/injection, schedule: Q01DX009 (ip), vehicle: water) was 107 % of control. For the same compound, the T/C (dose: 50.0 mg/kg/injection, schedule: Q04DX003 (ip), vehicle: water) was 101 % of control, the T/C (dose: 100.0 mg/kg/injection, schedule: Q01DX009 (ip), vehicle: water) was 116 % of control and the T/C (dose: 100.0 mg/kg/injection, schedule: Q04DX003 (ip), vehicle: water) was 96 % of control. For the same compound, the T/C (dose: 200.0 mg/kg/injection, schedule: Q01DX009 (ip), vehicle: water) was 123 % of control, the T/C (dose: 200.0 mg/kg/injection, schedule: Q04DX003 (ip), vehicle: water) was 98 % of control and 104 % of control and the T/C (dose: 300.0 mg/kg/injection, schedule: Q04DX003 (ip), vehicle: water) was 110 % of control. The T/C (dose: 400.0 mg/kg/injection, schedule: Q04DX003 (ip), vehicle: water) was 104 % of control.

With O=C(Nc1cccc(Cl)c1)N1c2ccccc2SC1c1ccco1 (configuration not stated) the T/C [5] was 91 % of control, the T/C [6] was 107 % of control and the T/C [7] was 109 % of control.

With CN(C)CCC=C1c2ccccc2-c2ccccc21 the T/C (dose: 12.5 mg/kg/injection, schedule: Q04DX003 (ip), vehicle: saline) was 100 % of control, the T/C [1] was 115 % of control and the T/C (dose: 25.0 mg/kg/injection, schedule: Q04DX003 (ip), vehicle: saline) was 90 % of control. For the same compound, the T/C [2] was 109 % of control and 120 % of control, the T/C (dose: 50.0 mg/kg/injection, schedule: Q04DX003 (ip), vehicle: saline) was 100 % of control and the T/C (dose: 75.0 mg/kg/injection, schedule: Q04DX003 (ip), vehicle: saline) was 113 % of control. For the same compound, the T/C [3] was 113 % of control and the T/C (dose: 115.0 mg/kg/injection, schedule: Q04DX003 (ip), vehicle: saline) was 95 % of control.

With COc1cc2c(c(OC)c1OC)CC/C(=C\O)C2=O the T/C (dose: 50.0 mg/kg/injection, schedule: Q01DX009 (ip), vehicle: Klucel (hydroxypropylcellulose) (HPC)) was 112 % of control, the T/C (dose: 100.0 mg/kg/injection, schedule: Q01DX009 (ip), vehicle: Klucel (hydroxypropylcellulose) (HPC)) was 114 % of control and the T/C (dose: 200.0 mg/kg/injection, schedule: Q01DX009 (ip), vehicle: Klucel (hydroxypropylcellulose) (HPC)) was 106 % of control.

CN(N=O)P(=O)(Nc1ccccc1)Nc1ccccc1 was tested, and the T/C (dose: 25.0 mg/kg/injection, schedule: Q04DX003 (ip), vehicle: other) was 100 % of control, the T/C (dose: 50.0 mg/kg/injection, schedule: Q04DX003 (ip), vehicle: other) was 100 % of control and the T/C (dose: 100.0 mg/kg/injection, schedule: Q04DX003 (ip), vehicle: other) was 95 % of control.

For O=[N+]([O-])c1ccc(NCc2ccccc2)c2c1no[n+]2[O-], the T/C (dose: 35.0 mg/kg/injection, schedule: Q01DX009 (ip), vehicle: saline with Tween-80) was 92 % of control, the T/C (dose: 70.0 mg/kg/injection, schedule: Q01DX009 (ip), vehicle: saline with Tween-80) was 91 % of control and the T/C (dose: 140.0 mg/kg/injection, schedule: Q01DX009 (ip), vehicle: saline with Tween-80) was 92 % of control.
